The values below come from US9428460B2, “N-[4-(quinolin-4-yloxy)cyclohexyl(methyl)](hetero)arylcarboxamides as androgen receptor antagonists, production and use thereof as medicinal products” (BAYER PHARMA AKTIENGESELLSCHAFT, priority 2012, dated 2016).

Test [1] has as its target human androgen receptor (full length, wild-type form) (Homo sapiens (Human), UniProt P10275). Kind of test: Transactivation assay for the wild-type androgen receptor (PC-3 cells, MMTV-luciferase reporter). The test is classed as cell-based. To be noted: in the presence of R1881, 16 hours. From the text: For determining the androgen receptor-dependent transcription, a cellular assay system was used, consisting of PC-3 cells (Kaighn et al., Invest. Urol. 17: 16-23, 1979), which express the human androgen receptor stably and recombinantly (full length, wild-type form, see Swiss-Prot Acc. No. P10275, Entry Version 159, Sequence Version 2). In addition, these PC3 cells contain a stably integrated reporter gene plasmid, which is based on the commercially available plasmid pGL4.14 (#E6691, Promega Corporation, Madison, Wis., USA) and contains the luciferase gene from the American firefly (Photinus pyralis) under the control of the MMTV promoter (Cato et al., EMBO J. 6: 363-368, 1987). These cells were propagated in routine cell culture at 37° C. and 5% CO2 in a medium containing 90% RPMI 1640 (Invitrogen GmbH, Darmstadt, Germany), 100 U penicillin, 100 μg/ml streptomycin (Invitrogen), 4 mM L-glutamine (Invitrogen), 10% fetal calf serum (FCS Serum Gold, PAA Laboratories GmbH, Cölbe, Germany), 600 μg/ml Geneticin (G418-sulphate, Invitrogen) and 10 μg/ml puromycin (Sigma Aldrich GmbH, Germany).
For carrying out the transactivation assays, approx. 1000 cells per well were plated out in a 384-well cell culture plate in a medium that contained activated charcoal-treated calf serum (FCS Serum Gold, PAA Laboratories) at a concentration of 5% (v/v). The test substances were added in a concentration series from 5.12×10^−12 to 1×10^−5 M in the presence of […] R1881 (methyltrienolone). The test plates were incubated overnight at 37° C. and 5% CO2. After 16 hours, 15 μl of Steady Glo Lysis and Detection reagent (E2550, Promega Corporation, Madison, Wis., USA) was added per well and the luminescence was read in a Topcount Luminometer (PerkinElmer, Waltham, Mass., USA) for 4 seconds per well. The luminescence values obtained were normalized, wherein 100% corresponded to the effect of the unstimulated control (without R1881), and 0% corresponded to the effect of the stimulated control (R1881 plus DMSO instead of test substance). The IC50 value was determined by regression analysis based on a four-parameter equation (minimum, maximum, IC50, Hill coefficient; Y=Max+(Min−Max)/(1+(X/IC50)^Hill)).

For another test, the system named is LNCaP cells. Kind of test: Proliferation assay with LNCaP cells. The test is classed as cell-based. To be noted: Homo sapiens, 168 h, in the presence of 1×10^−10 M R1881, seven days, AlamarBlue, read-out: IC50 LNCaP cell proliferation. Here is the method: LNCaP cells (Horoszewicz et al., in “Models for Prostate Cancer” (ed. G. P. Murphy), Alan R. Liss, New York 1981, p. 115-132; Horoszewicz et al., Cancer Res. 43: 1809-1818, 1983) were plated out at a density of 2000 cells per well of a 96-well cell culture plate in RMPI 1640 medium (F1275, Biochrom AG), which contained activated charcoal-treated calf serum (FCS Serum Gold, PAA Laboratories) at a concentration of 5% (v/v). Three days later the cells were treated with the test substances in concentrations from 1×10^−8 to 1×10^−10 M in the presence of 1×10^−10 M R1881. Cell proliferation was determined seven days later after incubation for 2 hours with AlamarBlue (DAL1100, Invitrogen) (Nakayama et al., J Immunol Methods, 204(2): 205-8, 1997). The fluorescence values obtained were normalized, wherein 100% corresponded to the effect of the unstimulated control (without R1881), and 0% corresponded to the effect of the stimulated control (R1881 plus DMSO instead of test substance). The IC50 value was determined by regression analysis based on a four-parameter equation (minimum, maximum, IC50, Hill coefficient; Y=Max+(Min−Max)/(1+(X/IC50)^Hill)).
On the technique in general: Alamar Blue is a resazurin reagent that responds to reducing activity.

Sequence of human androgen receptor (full length, wild-type form) (P10275 whole entry): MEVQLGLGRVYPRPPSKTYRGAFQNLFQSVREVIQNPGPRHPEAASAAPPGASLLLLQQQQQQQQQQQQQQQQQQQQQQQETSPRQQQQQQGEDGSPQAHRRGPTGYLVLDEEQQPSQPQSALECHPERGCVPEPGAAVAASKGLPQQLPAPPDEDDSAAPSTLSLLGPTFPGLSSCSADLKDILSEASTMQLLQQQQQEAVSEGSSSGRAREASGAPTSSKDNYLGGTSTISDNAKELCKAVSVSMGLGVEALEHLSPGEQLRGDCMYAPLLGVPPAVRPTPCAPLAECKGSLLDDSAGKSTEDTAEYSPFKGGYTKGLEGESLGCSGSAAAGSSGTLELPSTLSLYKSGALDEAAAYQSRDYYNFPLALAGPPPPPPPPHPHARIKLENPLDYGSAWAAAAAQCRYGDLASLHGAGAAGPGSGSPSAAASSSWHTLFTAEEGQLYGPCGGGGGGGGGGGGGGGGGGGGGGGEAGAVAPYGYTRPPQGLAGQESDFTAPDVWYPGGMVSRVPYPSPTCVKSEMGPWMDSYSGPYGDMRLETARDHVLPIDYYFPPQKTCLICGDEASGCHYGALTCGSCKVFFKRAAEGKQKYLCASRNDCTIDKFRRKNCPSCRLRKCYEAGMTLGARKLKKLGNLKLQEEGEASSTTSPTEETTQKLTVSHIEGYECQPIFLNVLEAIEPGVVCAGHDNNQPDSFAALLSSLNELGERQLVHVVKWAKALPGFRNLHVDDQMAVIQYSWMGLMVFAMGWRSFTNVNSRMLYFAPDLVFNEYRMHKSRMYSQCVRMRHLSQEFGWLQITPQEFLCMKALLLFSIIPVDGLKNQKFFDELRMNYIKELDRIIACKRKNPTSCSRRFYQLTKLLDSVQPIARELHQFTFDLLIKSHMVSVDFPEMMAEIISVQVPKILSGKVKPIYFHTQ

Take `O=C(NC[C@H]1CC[C@H](Oc2ccnc3c(F)cccc23)CC1)c1ccc(F)cc1` [Example 1, N-({trans-4-[(8-fluoroquinolin-4-yl)oxy]cyclohexyl}methyl)-4-fluorobenzamide]: the results for the IC50 (in test [1]; with LNCaP cells) were 240 nM and 170 nM, respectively.

In the case of `Cc1cc(C(=O)N[C@H]2CC[C@H](Oc3ccnc4c(Br)cccc34)CC2)no1` [Example 2, N-{trans-4-[(8-bromoquinolin-4-yl)oxy]cyclohexyl}-5-methylisoxazole-3-carboxamide], the IC50 in test [1] came out at 20 nM.

For the molecule `O=C(N[C@H]1CC[C@H](Oc2ccnc3ccccc23)CC1)c1ccc(F)c(F)c1` [Example 3, N-[trans-4-(4-quinolyloxy)cyclohexyl]-3,4-difluorobenzamide], the IC50 was 45 nM in test [1] and 99 nM with LNCaP cells.

Turning to `Cc1nocc1C(=O)NC[C@H]1CC[C@H](Oc2ccnc3c(F)cccc23)CC1` [Example 4, N-({trans-4-[(8-fluoroquinolin-4-yl)oxy]cyclohexyl}methyl)-3-methylisoxazole-4-carboxamide], the figures for the IC50 (in test [1]; in the test with LNCaP cells) were 210 nM and 250 nM, respectively.

As for `O=C(NC[C@H]1CC[C@H](Oc2ccnc3c(F)cccc23)CC1)c1ccno1` [Example 5, N-({trans-4-[(8-fluoroquinolin-4-yl)oxy]cyclohexyl}methyl)-isoxazole-5-carboxamide], the IC50 in test [1] is 460 nM; in the test on LNCaP cells it was 390 nM.

On to `O=C(NC[C@H]1CC[C@H](Oc2ccnc3c(F)cccc23)CC1)c1ccon1` [Example 6, N-({trans-4-[(8-fluoroquinolin-4-yl)oxy]cyclohexyl}methyl)isoxazole-3-carboxamide], for which the IC50 in test [1] was found to be 740 nM; in the test on LNCaP cells, 21 nM.

Regarding `Cc1cc(C(=O)NC[C@H]2CC[C@H](Oc3ccnc4c(F)cccc34)CC2)no1` [Example 7, N-({trans-4-[(8-fluoroquinolin-4-yl)oxy]cyclohexyl}methyl)-5-methylisoxazole-3-carboxamide], the IC50 in test [1] was determined as 480 nM; in the test with LNCaP cells, 97 nM.

Consider `O=C(NC[C@H]1CC[C@H](Oc2ccnc3c(F)cccc23)CC1)c1cc[nH]n1` [Example 8, N-({trans-4-[(8-fluoroquinolin-4-yl)oxy]cyclohexyl}methyl)-1H-pyrazole-3-carboxamide], for which the IC50 in test [1] came out at 420 nM; in the test with LNCaP cells, 1120 nM.

Regarding `O=C(N[C@H]1CC[C@H](Oc2ccnc3c(Br)cccc23)CC1)c1cccc(F)c1` [Example 12, N-{trans-4-[(8-bromoquinolin-4-yl)oxy]cyclohexyl}-3-fluorobenzamide], in test [1], the IC50 was found to be 93 nM.

For `O=C(N[C@H]1CC[C@H](Oc2ccnc3c(Br)cccc23)CC1)c1ccc(F)c(F)c1` [Example 13, N-{trans-4-[(8-bromoquinolin-4-yl)oxy]cyclohexyl}-3,4-difluorobenzamide], the IC50 in test [1] worked out at 170 nM.

For the molecule `Cc1ccc(C(=O)N[C@H]2CC[C@H](Oc3ccnc4c(Br)cccc34)CC2)cc1F` [Example 14, N-{trans-4-[(8-bromoquinolin-4-yl)oxy]cyclohexyl}-3-fluoro-4-methylbenzamide], the IC50 in test [1] worked out at 68 nM.

Regarding `N#Cc1ccc(C(=O)N[C@H]2CC[C@H](Oc3ccnc4c(Br)cccc34)CC2)cc1` [Example 15, N-{trans-4-[(8-bromoquinolin-4-yl)oxy]cyclohexyl}-4-cyanobenzamide], the IC50 in test [1] was 261 nM; with LNCaP cells, 190 nM.

In the case of `O=C(N[C@H]1CC[C@H](Oc2ccnc3c(Br)cccc23)CC1)c1ccc(C(F)(F)F)c(F)c1` [Example 16, N-{trans-4-[(8-bromoquinolin-4-yl)oxy]cyclohexyl}-3-fluoro-4-(trifluoromethyl)benzamide], the IC50 in test [1] was determined as 463 nM.

Take `O=C(N[C@H]1CC[C@H](Oc2ccnc3c(Br)cccc23)CC1)c1ccc(F)cc1` [Example 17, N-{trans-4-[(8-bromoquinolin-4-yl)oxy]cyclohexyl}-4-fluorobenzamide]: the IC50 in test [1] was 477 nM.

As to `O=C(N[C@H]1CC[C@H](Oc2ccnc3c(Br)cccc23)CC1)c1ccc(F)c(Cl)c1` [Example 18, N-{trans-4-[(8-bromoquinolin-4-yl)oxy]cyclohexyl}-3-chloro-4-fluorobenzamide], the IC50 in test [1] was determined as 190 nM.

Take `Cc1cc(C(=O)NC[C@H]2CC[C@H](Oc3ccnc4c(Br)cccc34)CC2)no1` [Example 20, N-({trans-4-[(8-bromoquinolin-4-yl)oxy]cyclohexyl}methyl)-5-methylisoxazole-3-carboxamide]: the IC50 in test [1] came out at 690 nM.

Consider `O=C(NC[C@H]1CC[C@H](Oc2ccnc3c(Br)cccc23)CC1)c1ccon1` [Example 21, N-({trans-4-[(8-bromoquinolin-4-yl)oxy]cyclohexyl}methyl)isoxazole-3-carboxamide], for which the IC50 in test [1] was 630 nM.

In the case of `N#Cc1ccc(C(=O)NC[C@H]2CC[C@H](Oc3ccnc4ccccc34)CC2)cc1` [Example 22, N-{[trans-4-(4-quinolyloxy)cyclohexyl]methyl}-4-cyanobenzamide], the figures for the IC50 (in test [1]; in the test on LNCaP cells) were 330 nM and 87 nM, respectively.

As for `N#Cc1cccc2c(O[C@H]3CC[C@H](NC(=O)c4ccc(F)cc4)CC3)ccnc12` [Example 25, N-{trans-4-[(8-cyanoquinolin-4-yl)oxy]cyclohexyl}-4-fluorobenzamide], the figures for the IC50 (in test [1]; in the test with LNCaP cells) were 140 nM and 233 nM, respectively.

With `Cc1cc(C(=O)N[C@H]2CC[C@H](Oc3ccnc4c(C#N)cccc34)CC2)no1` [Example 26, N-{trans-4-[(8-cyanoquinolin-4-yl)oxy]cyclohexyl}-5-methylisoxazole-3-carboxamide], the IC50 in test [1] amounted to 18 nM.

For the molecule `N#Cc1cccc2c(O[C@H]3CC[C@H](NC(=O)c4ccc(F)c(Cl)c4)CC3)ccnc12` [Example 27, 3-chloro-N-{trans-4-[(8-cyanoquinolin-4-yl)oxy]cyclohexyl}-4-fluorobenzamide], the IC50 in test [1] amounted to 67 nM.

On to `Cc1ccc(C(=O)N[C@H]2CC[C@H](Oc3ccnc4c(C#N)cccc34)CC2)cc1F` [Example 28, N-{trans-4-[(8-cyanoquinolin-4-yl)oxy]cyclohexyl}-3-fluoro-4-methylbenzamide], for which the IC50 in test [1] was found to be 45 nM; in the test with LNCaP cells, 51 nM.

For the molecule `N#Cc1cccc2c(O[C@H]3CC[C@H](NC(=O)c4ccc(Cl)c(F)c4)CC3)ccnc12` [Example 29, 4-chloro-N-{trans-4-[(8-cyanoquinolin-4-yl)oxy]cyclohexyl}-3-fluorobenzamide], the IC50 in test [1] worked out at 61 nM; in the test with LNCaP cells it was 29 nM.

With `N#Cc1cccc2c(O[C@H]3CC[C@H](NC(=O)c4cc(F)cc(F)c4)CC3)ccnc12` [Example 30, N-{trans-4-[(8-cyanoquinolin-4-yl)oxy]cyclohexyl}-3,5-difluorobenzamide], the results for the IC50 (in test [1]; in the test on LNCaP cells) were 39 nM and 30 nM, respectively.

With `N#Cc1cccc2c(O[C@H]3CC[C@H](CNC(=O)c4ccon4)CC3)ccnc12` [Example 31, N-({trans-4-[(8-cyanoquinolin-4-yl)oxy]cyclohexyl}methyl)isoxazole-3-carboxamide], the IC50 came to 720 nM in test [1] and 730 nM with LNCaP cells.

On to `Cc1cc(C(=O)NC[C@H]2CC[C@H](Oc3ccnc4c(C#N)cccc34)CC2)no1` [Example 32, N-({trans-4-[(8-cyanoquinolin-4-yl)oxy]cyclohexyl}methyl)-5-methylisoxazole-3-carboxamide], for which the figures for the IC50 (in test [1]; in the test on LNCaP cells) were 650 nM and 560 nM, respectively.
